From ChEMBL document CHEMBL1139046, “3,4-Dihydro-2H-benzoxazinones as dual-acting 5-HT1A receptor antagonists and serotonin reuptake inhibitors” (Bioorg Med Chem Lett, 2007) come the findings set out here.

Structures are written as SMILES. Bounds are passed on as bounds.

Data set [1] deals with 5-hydroxytryptamine receptor 1D (Homo sapiens, UniProt P28221). Description: Displacement of [3H]5-HT from human cloned 5HT1D receptor expressed in CHO cells. Type of data set: cell-based. (In a radioligand displacement assay an active substance lowers the binding of a labelled ligand.)
Data set [2] addresses 5-hydroxytryptamine receptor 6 (Homo sapiens, UniProt P50406). As to the kind of experiment: Displacement of [3H]LSD from human cloned 5HT6 receptor expressed in HeLa cells. It is filed as cell-based.
Data set [3] can be described thus: Blood clearance in rat at 3 mg/kg, po. Type of data set: ADME, organism-based. Further details: dose 3 mg/kg, route oral. The note with it: whole blood.
In data set [4] the target is 5-hydroxytryptamine receptor 2A (Homo sapiens, UniProt P28223). As to the kind of experiment: Displacement of [3H]ketanserin from human cloned 5HT2A receptor expressed in HEK293 cells. It is filed as cell-based.
A short description of data set [5]: Oral bioavailability in rat at 3 mg/kg, po. It is filed as ADME, organism-based. The settings on record: in vivo.
Data set [6] has as its target T1, 5-hydroxytryptamine receptor 2C (Homo sapiens, UniProt P28335).
T1 sequence (P28335 whole entry): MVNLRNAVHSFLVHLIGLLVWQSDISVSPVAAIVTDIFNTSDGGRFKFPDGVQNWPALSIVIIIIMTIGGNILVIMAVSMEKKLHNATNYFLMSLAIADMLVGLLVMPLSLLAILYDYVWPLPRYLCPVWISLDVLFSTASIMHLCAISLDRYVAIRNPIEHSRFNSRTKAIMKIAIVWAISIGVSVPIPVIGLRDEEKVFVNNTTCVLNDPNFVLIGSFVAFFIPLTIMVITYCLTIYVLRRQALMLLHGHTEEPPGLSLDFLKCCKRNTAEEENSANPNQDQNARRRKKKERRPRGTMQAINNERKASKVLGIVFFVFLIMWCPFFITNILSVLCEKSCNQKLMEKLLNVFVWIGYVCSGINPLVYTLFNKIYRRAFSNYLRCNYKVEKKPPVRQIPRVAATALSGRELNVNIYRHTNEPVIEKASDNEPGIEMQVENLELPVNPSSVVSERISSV
Description: Displacement of [3H]mesulergine from human cloned 5HT2C receptor expressed in HEK293 cells. Type of data set: cell-based.

Data set [7] concerns the target 5-hydroxytryptamine receptor 2B (Homo sapiens, UniProt P41595). Description: Displacement of [3H]5-HT from human cloned 5HT2B receptor expressed in HEK293 cells. Type of data set: cell-based.
For data set [8], the target named is Sodium-dependent serotonin transporter (Rattus norvegicus, UniProt P31652). Description: Inhibition of [3H]5-HT uptake at SERT in rat cortical synaptosomes. Type of data set: subcellular, Brain.
Data set [9] addresses 5-hydroxytryptamine receptor 1B (Homo sapiens, UniProt P28222). As to the kind of experiment: Displacement of [3H]5-HT from human cloned 5HT1B receptor expressed in CHO cells. Type of data set: cell-based.
Data set [10] addresses D(2) dopamine receptor (Homo sapiens, UniProt P14416). As to the kind of experiment: Displacement of [125I]iodosulpiride from human cloned D2 receptor expressed in CHO cells. Type of data set: cell-based.
The target of data set [11] is Alpha-1B adrenergic receptor (Homo sapiens) (UniProt P35368). As to the kind of experiment: Binding affinity at adrenergic alpha 1b receptor.
The target in data set [12] is 5-hydroxytryptamine receptor 7 (Homo sapiens, UniProt P34969). As to the kind of experiment: Displacement of [3H]5CT from human cloned 5HT7a receptor expressed in HEK293 cells. It is filed as cell-based.
In data set [13] the target is T2, 5-hydroxytryptamine receptor 1A (Homo sapiens, UniProt P08908).
T2 sequence (P08908 whole entry): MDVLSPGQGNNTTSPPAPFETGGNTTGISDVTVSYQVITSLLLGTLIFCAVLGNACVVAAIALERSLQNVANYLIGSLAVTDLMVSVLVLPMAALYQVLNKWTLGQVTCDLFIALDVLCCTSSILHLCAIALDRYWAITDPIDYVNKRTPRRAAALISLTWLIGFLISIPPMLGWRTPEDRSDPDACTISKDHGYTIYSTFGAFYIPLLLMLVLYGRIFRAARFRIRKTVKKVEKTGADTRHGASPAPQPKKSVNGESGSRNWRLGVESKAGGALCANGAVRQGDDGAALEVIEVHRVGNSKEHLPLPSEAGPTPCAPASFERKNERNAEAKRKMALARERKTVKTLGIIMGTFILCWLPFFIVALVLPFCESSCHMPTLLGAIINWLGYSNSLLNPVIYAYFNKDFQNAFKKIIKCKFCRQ
Description: Displacement of [3H]WAY-100635 from human cloned 5HT1A receptor expressed in CHO cells. Type of data set: cell-based.

Data set [14] addresses D(3) dopamine receptor (Homo sapiens, UniProt P35462). As to the kind of experiment: Displacement of [125I]iodosulpiride from human cloned D3 receptor expressed in CHO cells. Type of data set: cell-based.
Data set [15] is described as follows: Ratio of drug level in brain to blood in rat.

Chain of 5-hydroxytryptamine receptor 2B (P41595 whole entry): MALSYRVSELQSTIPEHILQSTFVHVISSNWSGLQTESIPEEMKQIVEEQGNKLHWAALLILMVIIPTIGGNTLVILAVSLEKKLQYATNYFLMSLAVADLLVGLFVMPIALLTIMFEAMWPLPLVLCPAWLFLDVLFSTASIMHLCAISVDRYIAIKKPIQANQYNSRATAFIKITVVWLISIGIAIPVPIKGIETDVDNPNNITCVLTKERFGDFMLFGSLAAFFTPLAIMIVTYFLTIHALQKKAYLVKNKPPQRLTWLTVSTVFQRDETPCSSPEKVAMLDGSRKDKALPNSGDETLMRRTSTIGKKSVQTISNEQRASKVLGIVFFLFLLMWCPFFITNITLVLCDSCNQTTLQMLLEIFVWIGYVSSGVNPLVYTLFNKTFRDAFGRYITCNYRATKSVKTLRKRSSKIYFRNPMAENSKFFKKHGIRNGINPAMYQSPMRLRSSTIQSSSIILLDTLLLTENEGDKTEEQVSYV
Chain of Alpha-1B adrenergic receptor (Homo sapiens) (P35368 whole entry, looked up): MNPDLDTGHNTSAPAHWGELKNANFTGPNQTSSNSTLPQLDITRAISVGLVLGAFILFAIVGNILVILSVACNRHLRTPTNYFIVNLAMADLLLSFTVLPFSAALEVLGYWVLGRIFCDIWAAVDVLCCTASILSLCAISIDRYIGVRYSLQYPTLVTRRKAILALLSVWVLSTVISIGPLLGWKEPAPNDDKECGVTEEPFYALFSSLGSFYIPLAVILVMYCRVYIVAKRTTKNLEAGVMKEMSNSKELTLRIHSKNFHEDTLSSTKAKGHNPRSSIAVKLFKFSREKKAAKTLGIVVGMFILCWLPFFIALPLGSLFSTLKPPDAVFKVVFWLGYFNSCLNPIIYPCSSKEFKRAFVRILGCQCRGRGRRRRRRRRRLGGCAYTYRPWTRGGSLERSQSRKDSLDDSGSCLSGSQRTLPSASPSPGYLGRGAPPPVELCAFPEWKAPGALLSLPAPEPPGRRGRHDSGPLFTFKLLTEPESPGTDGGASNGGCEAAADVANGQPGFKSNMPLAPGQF
Chain of 5-hydroxytryptamine receptor 1D (P28221 whole entry): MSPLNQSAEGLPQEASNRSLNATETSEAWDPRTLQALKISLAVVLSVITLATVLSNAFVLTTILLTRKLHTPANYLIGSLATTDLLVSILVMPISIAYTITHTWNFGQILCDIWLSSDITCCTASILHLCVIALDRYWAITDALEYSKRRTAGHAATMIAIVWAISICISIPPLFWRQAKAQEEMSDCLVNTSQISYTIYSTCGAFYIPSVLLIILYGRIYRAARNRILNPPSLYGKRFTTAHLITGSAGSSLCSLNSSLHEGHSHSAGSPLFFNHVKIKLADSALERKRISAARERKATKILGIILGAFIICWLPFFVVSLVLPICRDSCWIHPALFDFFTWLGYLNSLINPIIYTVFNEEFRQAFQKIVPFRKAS
Chain of D(2) dopamine receptor (P14416 whole entry): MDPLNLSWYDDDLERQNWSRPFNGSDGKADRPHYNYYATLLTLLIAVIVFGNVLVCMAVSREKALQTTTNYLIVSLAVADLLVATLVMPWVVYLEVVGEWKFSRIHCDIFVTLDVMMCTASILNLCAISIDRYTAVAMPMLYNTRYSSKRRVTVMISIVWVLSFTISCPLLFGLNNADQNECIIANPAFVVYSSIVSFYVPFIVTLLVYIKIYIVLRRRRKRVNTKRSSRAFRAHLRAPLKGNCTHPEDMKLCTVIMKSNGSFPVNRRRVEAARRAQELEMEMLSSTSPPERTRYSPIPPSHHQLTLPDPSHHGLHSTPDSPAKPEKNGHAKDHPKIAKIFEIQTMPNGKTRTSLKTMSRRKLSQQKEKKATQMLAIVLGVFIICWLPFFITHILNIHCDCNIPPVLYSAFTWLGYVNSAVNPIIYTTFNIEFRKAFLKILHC
Chain of D(3) dopamine receptor (P35462 whole entry): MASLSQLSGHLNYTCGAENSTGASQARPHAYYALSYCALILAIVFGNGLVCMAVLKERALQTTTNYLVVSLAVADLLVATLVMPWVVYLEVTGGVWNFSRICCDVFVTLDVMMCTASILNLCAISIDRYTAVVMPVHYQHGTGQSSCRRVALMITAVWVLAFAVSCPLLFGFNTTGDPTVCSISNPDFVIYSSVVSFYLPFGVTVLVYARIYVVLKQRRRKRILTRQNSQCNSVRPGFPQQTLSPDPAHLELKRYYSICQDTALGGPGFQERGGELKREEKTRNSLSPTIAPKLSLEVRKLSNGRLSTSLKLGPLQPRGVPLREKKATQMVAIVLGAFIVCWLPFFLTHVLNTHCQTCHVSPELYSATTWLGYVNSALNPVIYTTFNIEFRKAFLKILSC
Chain of 5-hydroxytryptamine receptor 7 (P34969 whole entry): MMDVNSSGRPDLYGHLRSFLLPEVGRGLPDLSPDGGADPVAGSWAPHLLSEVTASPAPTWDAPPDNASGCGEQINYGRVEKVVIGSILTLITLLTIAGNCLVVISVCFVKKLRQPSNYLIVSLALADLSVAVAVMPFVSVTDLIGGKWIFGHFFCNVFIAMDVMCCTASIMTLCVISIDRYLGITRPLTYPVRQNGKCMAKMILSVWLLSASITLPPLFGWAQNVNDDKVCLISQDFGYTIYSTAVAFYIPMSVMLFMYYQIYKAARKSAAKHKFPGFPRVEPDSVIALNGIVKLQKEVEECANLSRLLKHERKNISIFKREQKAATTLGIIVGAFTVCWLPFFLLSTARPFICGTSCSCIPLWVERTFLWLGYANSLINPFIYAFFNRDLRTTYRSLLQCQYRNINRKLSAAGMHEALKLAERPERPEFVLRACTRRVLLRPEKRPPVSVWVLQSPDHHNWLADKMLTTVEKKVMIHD
Chain of 5-hydroxytryptamine receptor 6 (P50406 whole entry): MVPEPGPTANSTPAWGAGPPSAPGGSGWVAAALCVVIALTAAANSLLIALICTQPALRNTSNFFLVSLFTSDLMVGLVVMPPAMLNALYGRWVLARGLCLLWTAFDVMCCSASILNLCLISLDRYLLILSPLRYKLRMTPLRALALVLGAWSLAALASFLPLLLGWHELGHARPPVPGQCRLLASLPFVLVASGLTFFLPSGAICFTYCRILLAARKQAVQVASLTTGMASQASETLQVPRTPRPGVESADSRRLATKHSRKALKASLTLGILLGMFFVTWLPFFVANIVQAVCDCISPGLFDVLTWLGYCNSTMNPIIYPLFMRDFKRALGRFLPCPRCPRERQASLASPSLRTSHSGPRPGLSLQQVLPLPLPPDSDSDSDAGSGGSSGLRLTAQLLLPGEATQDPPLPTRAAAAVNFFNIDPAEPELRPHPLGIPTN
Chain of Sodium-dependent serotonin transporter (P31652 whole entry): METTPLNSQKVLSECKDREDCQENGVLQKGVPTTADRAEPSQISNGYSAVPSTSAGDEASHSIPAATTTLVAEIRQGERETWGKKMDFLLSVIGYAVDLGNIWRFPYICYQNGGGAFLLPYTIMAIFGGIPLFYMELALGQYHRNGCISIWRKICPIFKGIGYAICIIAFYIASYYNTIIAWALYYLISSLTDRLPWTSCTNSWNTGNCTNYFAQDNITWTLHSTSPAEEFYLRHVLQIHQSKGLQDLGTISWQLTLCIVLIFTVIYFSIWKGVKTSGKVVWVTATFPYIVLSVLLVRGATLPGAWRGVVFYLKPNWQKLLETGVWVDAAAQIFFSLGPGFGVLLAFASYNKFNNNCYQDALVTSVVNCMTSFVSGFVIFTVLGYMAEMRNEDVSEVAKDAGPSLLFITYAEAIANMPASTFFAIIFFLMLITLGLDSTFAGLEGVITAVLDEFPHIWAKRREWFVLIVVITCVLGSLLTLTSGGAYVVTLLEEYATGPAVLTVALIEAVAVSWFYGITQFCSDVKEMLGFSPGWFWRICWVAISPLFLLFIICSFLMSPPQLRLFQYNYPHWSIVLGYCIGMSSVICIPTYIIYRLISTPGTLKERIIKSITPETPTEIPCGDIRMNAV
Chain of 5-hydroxytryptamine receptor 2A (P28223 whole entry): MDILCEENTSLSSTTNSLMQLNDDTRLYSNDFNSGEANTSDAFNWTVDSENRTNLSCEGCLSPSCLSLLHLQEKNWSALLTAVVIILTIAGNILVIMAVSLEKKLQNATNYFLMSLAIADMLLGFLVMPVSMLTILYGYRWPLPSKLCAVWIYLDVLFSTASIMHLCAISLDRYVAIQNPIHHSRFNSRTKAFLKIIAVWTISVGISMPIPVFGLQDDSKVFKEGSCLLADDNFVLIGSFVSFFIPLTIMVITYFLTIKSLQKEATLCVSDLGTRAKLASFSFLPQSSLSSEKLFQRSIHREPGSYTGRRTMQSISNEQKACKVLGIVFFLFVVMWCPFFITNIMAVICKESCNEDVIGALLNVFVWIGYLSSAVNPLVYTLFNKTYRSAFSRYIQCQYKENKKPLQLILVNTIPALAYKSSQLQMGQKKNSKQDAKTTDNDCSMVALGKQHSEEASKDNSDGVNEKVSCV
Chain of 5-hydroxytryptamine receptor 1B (P28222 whole entry): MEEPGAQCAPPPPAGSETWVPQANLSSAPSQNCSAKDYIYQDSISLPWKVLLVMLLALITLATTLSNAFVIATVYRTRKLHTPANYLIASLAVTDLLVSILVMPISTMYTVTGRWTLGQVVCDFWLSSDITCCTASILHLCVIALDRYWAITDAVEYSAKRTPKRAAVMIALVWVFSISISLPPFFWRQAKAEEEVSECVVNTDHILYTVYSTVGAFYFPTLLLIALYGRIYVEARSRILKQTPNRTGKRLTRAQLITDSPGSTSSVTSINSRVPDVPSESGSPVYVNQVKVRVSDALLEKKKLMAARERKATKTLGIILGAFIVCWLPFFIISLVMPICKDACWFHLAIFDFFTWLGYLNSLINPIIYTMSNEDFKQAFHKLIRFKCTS

For the compound `Cc1ccc2c(OCCN3CCC(Cc4ccc5c(c4F)NC(=O)CO5)CC3)cc(Cl)cc2n1`, the Ki – broadly, the dissociation constant of the complex between target and ligand, obtained from inhibition or displacement – was 631 nM in [1]; above 10000 nM in [2]; 3980 nM in [4]; 3980 nM in data set [6]; 1580 nM in data set [7]; 63.1 nM in data set [8]. The Ki in [9] is 1580 nM; in data set [10], 1260 nM; in data set [11], 398 nM; in [12] it was 126 nM; in data set [13] it was 2.51 nM; in data set [14], 1000 nM. The apparent clearance CL/F – broadly, clearance divided by bioavailability, as obtained after extravascular dosing – in [3] was 28 mL/min/kg. Besides, the bioavailability – broadly, the share of a dose that reaches the circulation, judged against a reference dose that is usually intravenous – in data set [5] worked out at 43%.

As for `Cc1ccc2c(OCCN3CCC(Cc4ccc5c(c4)NC(=O)CO5)CC3)c(F)ccc2n1`, the Ki in data set [1] is 2.51 nM; in data set [8] it was 10 nM; in data set [9] it was 31.6 nM; in data set [13], 50.1 nM.

For the compound `Cc1ccc2c(OCCN3CCC(Cc4cc5c(cc4F)OCC(=O)N5)CC3)cccc2n1`, the Ki in [1] was 3.16 nM; in [8] it was 7.94 nM; in data set [9], 20 nM; in [13], 0.501 nM. The compound also displayed a CL/F in [3] of 36 mL/min/kg. Moreover, in [5], the bioavailability was found to be 33%.

As to `Cc1ccc2c(OCCN3CCC(Cc4ccc5c(c4)NC(=O)CO5)CC3)cc(Cl)cc2n1`, the Ki in data set [1] was 794 nM; in data set [8] it was 10 nM; in data set [9], 1260 nM; in data set [13] it was 1.58 nM. Besides, the CL/F in data set [3] turned out to be 25 mL/min/kg. Further, the Kp (as a rule, the ratio of the level in a tissue or fluid to that in plasma or blood) in data set [15] was found to be 0.2. The bioavailability in data set [5] came to 56%.

In the case of `Cc1ccc2c(OCCN3CCC(Cc4ccc5c(c4)NC(=O)CO5)CC3)ccc(F)c2n1`, the Ki in data set [1] is 79.4 nM; in [8], 7.94 nM; in data set [9], 794 nM; in data set [13] it was 20 nM.

Regarding `Cc1ccc2c(OCCN3CCC(Cc4ccc5c(c4F)NC(=O)CO5)CC3)cccc2n1`, the Ki in [1] was 0.794 nM; in data set [8], 15.8 nM; in [9], 2.51 nM; in data set [13], 2.51 nM. For the same compound, the apparent clearance (CL/F) in [3] came out at 41 mL/min/kg. In addition, the Kp in data set [15] was 4.

In the case of `Cc1ccc2c(OCCN3CCC(Cc4ccc5c(c4)NC(=O)CO5)CC3)cccc2n1`, the Ki in data set [2] was above 10000 nM; in data set [4] it was 3160 nM; in data set [6] it was above 7940 nM; in [7], 1580 nM; in data set [10], 1260 nM; in data set [11], 2510 nM. The values for the Ki in data set [12] and in data set [14] were 200 nM and 631 nM, respectively. Moreover, the apparent clearance CL/F in data set [3] amounted to 50 mL/min/kg. Besides, in data set [5], the bioavailability is 45%.

As for `Cc1ccc2c(OCCN3CCC(Cc4ccc5c(c4)NC(=O)CO5)CC3)cc(F)cc2n1`, the Ki in data set [1] was 398 nM; in data set [8], 15.8 nM; in data set [9] it was above 1000 nM; in data set [13], 0.794 nM. The compound further displayed a CL/F in data set [3] of 25 mL/min/kg. For the same compound, in [5], the bioavailability was found to be 41%.

On to `Cc1ccc2c(OCCN3CCC(Cc4ccc5c(c4F)NC(=O)CO5)CC3)cc(F)cc2n1`, for which the inhibitory constant (Ki) in [1] was 100 nM; in [2] it was above 10000 nM; in [4] it was 2000 nM; in data set [6] it was 2510 nM; in [8], 25.1 nM; in data set [9] it was 398 nM. Moreover, the Ki in data set [10] is 1260 nM; in data set [11] it was 1260 nM; in [12], 126 nM; in data set [13] it was 1.58 nM; in [14] it was 794 nM. Further, in [3], the CL/F was found to be 27 mL/min/kg. Also, in data set [15], the Kp was 6.4. The bioavailability in data set [5] is 39%.

Turning to `Cc1ccc2c(OCCN3CCC(Cc4ccc5c(c4)NC(=O)CO5)CC3)cc(C#N)cc2n1`, the Ki in data set [1] is 251 nM; in data set [8] it was 100 nM; in data set [9] it was 1000 nM; in [13], 20 nM.

For the compound `Cc1ccc2c(OCCN3CCC(Cc4cc(F)c5c(c4)NC(=O)CO5)CC3)cccc2n1`, the Ki was 0.398 nM in data set [1], 6.31 nM in data set [8], 0.794 nM in data set [9] and 5.01 nM in data set [13]. For the same compound, the apparent clearance CL/F in [3] stood at 22 mL/min/kg.

With `Cc1ccc2c(OCCN3CCC(Cc4ccc5c(c4)NC(=O)CO5)CC3)ccc(Cl)c2n1`, the Ki is 63.1 nM in data set [1], 12.6 nM in data set [8], 158 nM in data set [9] and 39.8 nM in data set [13].

Take `Cc1ccc2c(OCCN3CCC(Cc4cc(F)c5c(c4)NC(=O)CO5)CC3)cc(Cl)cc2n1`: the Ki in [1] is 631 nM; in data set [2], above 10000 nM; in [4], 3160 nM; in data set [6], 2510 nM; in [7], 3160 nM; in [8], 63.1 nM. For the same compound, the Ki in data set [9] is 631 nM; in data set [10], 2510 nM; in [11], 1580 nM; in data set [12], 79.4 nM; in [13], 10 nM; in data set [14], 1260 nM. In data set [3], this compound showed a CL/F of 16 mL/min/kg. In data set [5], this compound registered a bioavailability of 51%.

As to `Cc1ccc2c(OCCN3CCC(Cc4cc(F)c5c(c4)NC(=O)CO5)CC3)cc(F)cc2n1`, the inhibition constant Ki in data set [1] was 79.4 nM; in data set [2], above 6310 nM; in data set [4], above 10000 nM; in data set [6] it was above 10000 nM; in data set [7], above 7940 nM; in data set [8], 63.1 nM. Moreover, the Ki in data set [9] was 316 nM; in data set [10], above 10000 nM; in [12] it was 79.4 nM; in data set [13] it was 3.98 nM; in [14] it was 3980 nM. In [3], this compound came in with a CL/F of 25 mL/min/kg. The Kp in data set [15] worked out at 0.4. In [5], this compound registered a bioavailability of 88%. Moreover, the Log Ki in [11] is above -6.
